Laboratory results reported in PMC3413742 (Biological psychiatry, 2012).

Key:
[1] = biological target: hDAT Y335A (Homo sapiens, UniProt Q01959, Y335A); experiment: [3H]DA uptake inhibition in COS-7 cells expressing hDAT Y335A mutant; format: cell-based
[2] = biological target: T1, hDAT WT (Homo sapiens, UniProt Q01959); experiment: [3H]DA uptake inhibition in COS-7 cells transiently expressing hDAT WT; format: cell-based
[3] = system: mice trained to discriminate cocaine (10 mg/kg) from saline; experiment: Cocaine discrimination procedure; format: in vivo, mouse; details: for substitution for the discriminative-stimulus effects of cocaine: pretreatment time 60 min
[4] = biological target: T1, hDAT WT; experiment: [3H]WIN 35,428 binding in COS-7 cells transiently expressing hDAT WT; details: R- versus S-modafinil
[5] = biological target: T2, NET (Homo sapiens, UniProt P23975); experiment: [3H]DA uptake inhibition at the NET; format: cell-based
[6] = biological target: T2, NET; experiment: [3H]nisoxetine binding at the NET
[7] = system: extracellular DA concentrations in the mouse NAc shell; experiment: Microdialysis of extracellular DA in the NAc shell; format: in vivo
[8] = system: DAT; details: rat brain tissue; cited from earlier work

T2 sequence (P23975 whole entry): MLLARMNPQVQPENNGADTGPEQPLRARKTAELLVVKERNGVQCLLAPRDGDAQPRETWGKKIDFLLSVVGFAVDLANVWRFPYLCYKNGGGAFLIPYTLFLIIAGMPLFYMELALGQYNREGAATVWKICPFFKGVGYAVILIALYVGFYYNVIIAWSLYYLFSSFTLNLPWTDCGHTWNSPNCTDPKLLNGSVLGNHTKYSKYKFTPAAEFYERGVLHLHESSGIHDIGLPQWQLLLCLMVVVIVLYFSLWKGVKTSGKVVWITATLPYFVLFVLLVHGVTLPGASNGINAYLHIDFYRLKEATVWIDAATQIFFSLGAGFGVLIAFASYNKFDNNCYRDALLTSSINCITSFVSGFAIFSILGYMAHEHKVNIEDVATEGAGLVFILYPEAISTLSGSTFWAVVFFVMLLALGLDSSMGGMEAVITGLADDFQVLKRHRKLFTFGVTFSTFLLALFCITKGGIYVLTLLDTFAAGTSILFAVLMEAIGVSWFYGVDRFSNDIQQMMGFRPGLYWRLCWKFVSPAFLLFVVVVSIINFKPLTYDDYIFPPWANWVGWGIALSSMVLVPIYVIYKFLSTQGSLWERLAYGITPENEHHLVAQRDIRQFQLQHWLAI
T1 sequence (Q01959 whole entry): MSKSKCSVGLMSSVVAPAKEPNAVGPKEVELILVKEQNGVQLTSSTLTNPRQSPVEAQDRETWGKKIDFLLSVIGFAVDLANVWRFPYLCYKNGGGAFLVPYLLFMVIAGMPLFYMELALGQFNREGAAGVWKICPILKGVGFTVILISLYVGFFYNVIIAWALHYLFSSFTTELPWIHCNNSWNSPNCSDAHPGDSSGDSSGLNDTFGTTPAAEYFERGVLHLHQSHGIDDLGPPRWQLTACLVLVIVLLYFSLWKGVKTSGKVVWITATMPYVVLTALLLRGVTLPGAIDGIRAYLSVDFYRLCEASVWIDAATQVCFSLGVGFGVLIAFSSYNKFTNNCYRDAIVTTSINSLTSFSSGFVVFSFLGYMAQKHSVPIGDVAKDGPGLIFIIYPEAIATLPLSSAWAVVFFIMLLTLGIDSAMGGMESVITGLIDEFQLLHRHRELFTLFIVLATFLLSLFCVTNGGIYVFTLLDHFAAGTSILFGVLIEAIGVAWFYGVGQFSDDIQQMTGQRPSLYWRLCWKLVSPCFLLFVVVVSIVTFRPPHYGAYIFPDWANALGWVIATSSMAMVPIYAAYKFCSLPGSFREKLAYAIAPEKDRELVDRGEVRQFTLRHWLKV
Sequence of hDAT Y335A (Q01959 whole entry Y335A): as the sequence (Q01959 whole entry) above, with Y335A counted along it

In the case of `CCCCN1[C@@H]2CC[C@H]1CC(OC(c1ccc(F)cc1)c1ccc(F)cc1)C2` (stereo partly shown) [JHW 007], the “Y335A:WT IC50 ratio for [3H]DA uptake inhibition” value [1] is reported as ~ 20 fold.

In the case of `NC(=O)C[S+]([O-])C(c1ccccc1)c1ccccc1` (racemic) [(±)-modafinil], the “[3H]DA uptake inhibition potency lower than observed for DA” value [2] is reported as “more than 7 fold” and the “substitution for the discriminative-stimulus effects of cocaine” value (“substitution … of cocaine” below) [3] is reported as “fully substituted for cocaine”.

With `NC(=O)C[S@@+]([O-])C(c1ccccc1)c1ccccc1` [R-modafinil, R-(−)-modafinil] the “higher affinity for DAT than the S-enantiomer” value [4] was ~ 3 fold, the IC50 [5] was > 100 µM and the IC50 [6] was > 100 µM. For the same compound, the “extracellular DA levels, stimulation as % of DA basal levels” value ([7]; 30, 100, 300 mg/kg i.p.) was “approximately 300 % of DA basal levels”, the “time after injection at which DA stimulation was reached” value ([7]; 30, 100, 300 mg/kg i.p.) was 40 to 60 min and the “substitution … of cocaine” value [3] was “fully substituted for cocaine”. For the same compound, the “higher affinity for the DAT than the S-enantiomer” value [8] was ~ 3 fold.

In the case of `COC(=O)[C@H]1[C@@H](OC(=O)c2ccccc2)C[C@@H]2CC[C@H]1N2C` [cocaine], the “extracellular DA levels, maximum as % of basal levels” value ([7]; 10 – 55 mg/kg) is reported as “approximately 700 % of basal levels” and the “time after injection of maximum DA” value ([7]; 10 – 55 mg/kg) is reported as ~ 30 min.

For `NC(=O)C[S@+]([O-])C(c1ccccc1)c1ccccc1` [S-modafinil, S-(+)-modafinil], the IC50 ([5]; read-out: IC50, inhibition of [3H]DA uptake at the NET, N=3, data not shown) was > 100 µM, the IC50 ([6]; read-out: IC50, inhibition of [3H]nisoxetine binding at the NET, N=3, data not shown) was > 100 µM and the “ED50 Value, substitution for cocaine (95% confidence limits)” value ([3]; cocaine 5 min, modafinils 60 min before testing) was 89.0 (64.0 – 115) μmol/kg. For the same compound, the “substitution … of cocaine” value [3] was “fully substituted for cocaine”.
